What was measured:
[1] = Substrate solubility in natural deep eutectic solvent (polarizing microscope); type: physicochemical; conditions: in natural deep eutectic solvent C-Gly (choline chloride-glycerin), 60° C., 200 rpm
Procedure: 10 g of natural deep eutectic solvent (C-Gly) was accurately weighed and placed in a thermostatic shaking water bath at 60° C. After the temperature was constant, 10 mg of lauric acid was weighed and added thereto, and the mixture was shaken at 200 rpm for 30 min. Then a drop was taken out by a capillary and detected under a polarizing microscope. […] The final substrate solubility was calculated according to the following formula: S=mt×10/1000 (1).
Herein, S is the solubility and mt is the total addition amount of substrate.

[2] = CMC value determined by conductivity method; type: physicochemical; conditions: aqueous solution
Procedure: The CMC value is determined by a conductivity method: The relationship between the conductivity of an ionic surfactant aqueous solution and the concentration is used to draw a ∧m-C^1/2 curve, and the CMC value is derived from the turning point of the curve.
∧m=K/C. The unit of ∧m is S·m^2/mol, and the unit of C is mol/L.
For a strong electrolyte, if the temperature is constant, the molar conductivity ∧m of the strong electrolyte solution has a linear relationship with the concentration of the solution c^1/2 in an extremely low concentration range. For a colloidal electrolyte, the conductivity and molar conductivity of a dilute solution change in the same way as the strong electrolyte.

Row | solubility [1] [g/100 g] | Compound | CMC value [2] [mol/L]
1 | 24.98 | CCCCCCCCCCCC(=O)O [lauric acid] | –
2 | – | CCCCCCCCCCCC(=O)NCC(=O)O [lauroyl glycine] | 0.0044
3 | – | Gemini lauroyl lysine [Gemini lauroyl amino acid] | 0.0044
